Measurements as given in US20210308319A1, “TRANSITION TO TRANSLUCENT SUTURES” (University of Pittsburgh - Of the Commonwealth System of …, priority 2018, published 2021).

Assay: UV-Vis spectroscopy of the rate of dissolution of dyes in water
Assay type: physicochemical
Conditions: excess dye in cuvette, 320-800 nm, 0 to 10 minutes
Protocol: An excess mass of both crystal violet and violet stearate was added to separate, clean polystyrene cuvettes. The spectrometer was calibrated to measure absorbance over the range of 320-800 nm. A background UV-Vis spectrum was then collected using a clean cuvette filled with distilled water (this spectrum is later subtracted from the dye solution spectrums to give the absorbance resulting from the dye only). The dye containing cuvettes were then loaded into the UV-Vis spectrometer. Water was then carefully syringed down the side of the first cuvette until the cuvettes were filled, and the spectrum immediately collected upon addition. […] The 20 minutes spectra are not included due to the fact they are very similar to the 10 minute spectra for both dyes tested.

## CN(C)c1ccc(C(=C2C=CC(=[N+](C)C)C=C2)c2ccc(N(C)C)cc2)cc1 [Crystal Violet, crystal violet]
  Change of UV-Vis absorbance spectra over time after addition of water (rate of dissolution): do not change over time at all

## CCCCCCCCCCCCCCCCCC(=O)[O-].CN(C)c1ccc(C(=C2C=CC(=[N+](C)C)C=C2)c2ccc(N(C)C)cc2)cc1 [Violet Stearate]
  Change of UV-Vis absorbance spectra over time after addition of water (rate of dissolution): definite increase in absorbance over time
